The text below walks through data of patent US12479847B2 (DANA-FARBER CANCER INSTITUTE, INC., priority 2019, dated 2025).

Like-named read-outs stand apart in the source and are kept apart here.

Test in all cases: KINOMEscan (ScanMAX) kinase profiling
What all share (assay type): binding

For test [1], the target named is T1, panel of 468 kinases (Homo sapiens, UniProt Q9UPZ9).
T1 construct: purchased KINOMEscan (ScanMAX) service
T1 sequence (Q9UPZ9 1-632): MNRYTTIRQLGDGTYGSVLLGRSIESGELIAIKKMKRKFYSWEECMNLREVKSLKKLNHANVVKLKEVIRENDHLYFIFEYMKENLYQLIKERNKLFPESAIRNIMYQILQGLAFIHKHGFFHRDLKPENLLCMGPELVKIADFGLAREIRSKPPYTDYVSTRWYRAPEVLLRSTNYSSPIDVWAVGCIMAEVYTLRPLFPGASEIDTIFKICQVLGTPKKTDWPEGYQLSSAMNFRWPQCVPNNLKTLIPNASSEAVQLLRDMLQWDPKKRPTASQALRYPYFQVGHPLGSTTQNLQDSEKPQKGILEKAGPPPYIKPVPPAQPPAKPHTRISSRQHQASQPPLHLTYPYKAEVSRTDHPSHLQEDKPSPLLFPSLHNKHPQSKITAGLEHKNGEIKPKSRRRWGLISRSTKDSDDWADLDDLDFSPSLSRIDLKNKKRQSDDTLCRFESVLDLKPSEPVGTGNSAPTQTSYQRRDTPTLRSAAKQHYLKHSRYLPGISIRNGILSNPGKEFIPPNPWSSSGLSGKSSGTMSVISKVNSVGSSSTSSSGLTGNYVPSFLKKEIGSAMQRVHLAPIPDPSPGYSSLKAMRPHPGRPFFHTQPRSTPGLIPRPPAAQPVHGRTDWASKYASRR
The settings on record: ICK; 1 μM; read-out: % control.

Test [2] concerns the target T2, panel of 468 kinases (Homo sapiens, UniProt Q8IVW4).
T2 construct: purchased KINOMEscan (ScanMAX) service
As to conditions: CDKL3; 1 μM; read-out: % control.

Test [3] addresses T3, panel of 468 kinases (Homo sapiens, UniProt P10721, V559D).
T3 construct: purchased KINOMEscan (ScanMAX) service
As to conditions: KIT(V559D); 1 μM; read-out: % control.

In test [4] the target is T4, panel of 468 kinases (Homo sapiens, UniProt Q9UQB9).
T4 construct: purchased KINOMEscan (ScanMAX) service
T4 sequence (Q9UQB9 1-309): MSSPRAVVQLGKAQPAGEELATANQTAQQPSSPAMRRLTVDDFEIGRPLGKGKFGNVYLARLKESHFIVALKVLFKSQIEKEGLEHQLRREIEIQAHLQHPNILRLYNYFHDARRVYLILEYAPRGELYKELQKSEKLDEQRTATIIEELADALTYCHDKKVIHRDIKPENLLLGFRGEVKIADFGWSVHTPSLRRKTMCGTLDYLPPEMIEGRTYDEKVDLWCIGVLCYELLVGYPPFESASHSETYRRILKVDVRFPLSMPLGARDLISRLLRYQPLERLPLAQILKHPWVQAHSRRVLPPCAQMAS
As to conditions: AURKC; 1 μM; read-out: % control.

Test [5] concerns the target T5, panel of 468 kinases (Homo sapiens, UniProt Q8N4C8).
T5 construct: purchased KINOMEscan (ScanMAX) service
As to conditions: MINK; 1 μM; read-out: % control.

For test [6], the target named is T6, panel of 468 kinases (Homo sapiens, UniProt P07333).
T6 construct: purchased KINOMEscan (ScanMAX) service
The settings on record: 1 μM, read-out: % control.

Test [7] deals with T7, panel of 468 kinases (Homo sapiens, UniProt P53778).
T7 construct: purchased KINOMEscan (ScanMAX) service
T7 sequence (P53778 1-367): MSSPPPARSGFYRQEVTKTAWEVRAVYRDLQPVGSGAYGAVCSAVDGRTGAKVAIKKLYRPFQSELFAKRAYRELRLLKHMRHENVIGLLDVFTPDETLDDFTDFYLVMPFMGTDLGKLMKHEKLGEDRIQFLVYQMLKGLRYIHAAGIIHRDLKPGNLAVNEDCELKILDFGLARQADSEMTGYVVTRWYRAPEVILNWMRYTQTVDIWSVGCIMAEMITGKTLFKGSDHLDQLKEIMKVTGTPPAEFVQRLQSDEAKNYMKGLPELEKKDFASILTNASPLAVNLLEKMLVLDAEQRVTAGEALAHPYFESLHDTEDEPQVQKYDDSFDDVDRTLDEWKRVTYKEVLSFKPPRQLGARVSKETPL
As to conditions: p38-gamma; 1 μM; read-out: % control.

The target of test [8] is T8, panel of 468 kinases (Homo sapiens, UniProt P49841).
T8 construct: purchased KINOMEscan (ScanMAX) service
As to conditions: GSK3B; 1 μM; read-out: % control.

The target in test [9] is T9, panel of 468 kinases (Homo sapiens, UniProt P29317).
T9 construct: purchased KINOMEscan (ScanMAX) service
As to conditions: EPHA2; 1 μM; read-out: % control.

Test [10] addresses T10, panel of 468 kinases (Homo sapiens, UniProt Q06187).
T10 construct: purchased KINOMEscan (ScanMAX) service
The settings on record: BTK; 1 μM; read-out: % control.

The target in test [11] is T11, panel of 468 kinases (Homo sapiens, UniProt P35968).
T11 construct: purchased KINOMEscan (ScanMAX) service
The settings on record: VEGFR2; 1 μM; read-out: % control.

Test [12] deals with T12, panel of 468 kinases (Homo sapiens, UniProt P49759).
T12 construct: purchased KINOMEscan (ScanMAX) service
As to conditions: CLK1; 1 μM; read-out: % control.

Test [13] has as its target T13, panel of 468 kinases (Homo sapiens, UniProt Q9P0L2).
T13 construct: purchased KINOMEscan (ScanMAX) service
The settings on record: MARK1; 1 μM; read-out: % control.

In test [14] the target is T14, panel of 468 kinases (Homo sapiens, UniProt Q86V86).
T14 construct: purchased KINOMEscan (ScanMAX) service
The settings on record: PIM3; 1 μM; read-out: % control.

In test [15] the target is T15, panel of 468 kinases (Homo sapiens, UniProt Q9UIK4).
T15 construct: purchased KINOMEscan (ScanMAX) service
As to conditions: DAPK2; 1 μM; read-out: % control.

T13 sequence (Q9P0L2 whole entry): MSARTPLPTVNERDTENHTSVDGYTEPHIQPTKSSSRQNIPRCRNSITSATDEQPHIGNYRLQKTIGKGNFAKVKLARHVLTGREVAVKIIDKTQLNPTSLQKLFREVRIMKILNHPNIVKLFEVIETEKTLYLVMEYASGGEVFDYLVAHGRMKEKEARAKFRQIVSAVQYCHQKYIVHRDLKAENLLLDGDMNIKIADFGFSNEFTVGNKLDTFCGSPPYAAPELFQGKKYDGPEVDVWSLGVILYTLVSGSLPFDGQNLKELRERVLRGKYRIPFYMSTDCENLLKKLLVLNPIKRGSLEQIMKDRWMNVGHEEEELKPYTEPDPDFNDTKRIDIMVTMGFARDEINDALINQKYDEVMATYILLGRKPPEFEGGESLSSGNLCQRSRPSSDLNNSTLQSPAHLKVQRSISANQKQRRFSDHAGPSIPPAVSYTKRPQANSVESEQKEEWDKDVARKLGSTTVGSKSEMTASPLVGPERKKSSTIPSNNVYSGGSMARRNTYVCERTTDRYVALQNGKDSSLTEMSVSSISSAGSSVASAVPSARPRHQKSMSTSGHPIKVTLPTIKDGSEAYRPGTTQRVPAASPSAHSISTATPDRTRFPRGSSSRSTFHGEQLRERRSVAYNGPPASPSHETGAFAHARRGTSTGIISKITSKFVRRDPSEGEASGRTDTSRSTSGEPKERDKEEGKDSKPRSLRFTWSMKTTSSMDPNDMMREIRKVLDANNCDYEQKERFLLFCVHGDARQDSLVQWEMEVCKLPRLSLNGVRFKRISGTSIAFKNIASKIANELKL
T6 sequence (P07333 20-972): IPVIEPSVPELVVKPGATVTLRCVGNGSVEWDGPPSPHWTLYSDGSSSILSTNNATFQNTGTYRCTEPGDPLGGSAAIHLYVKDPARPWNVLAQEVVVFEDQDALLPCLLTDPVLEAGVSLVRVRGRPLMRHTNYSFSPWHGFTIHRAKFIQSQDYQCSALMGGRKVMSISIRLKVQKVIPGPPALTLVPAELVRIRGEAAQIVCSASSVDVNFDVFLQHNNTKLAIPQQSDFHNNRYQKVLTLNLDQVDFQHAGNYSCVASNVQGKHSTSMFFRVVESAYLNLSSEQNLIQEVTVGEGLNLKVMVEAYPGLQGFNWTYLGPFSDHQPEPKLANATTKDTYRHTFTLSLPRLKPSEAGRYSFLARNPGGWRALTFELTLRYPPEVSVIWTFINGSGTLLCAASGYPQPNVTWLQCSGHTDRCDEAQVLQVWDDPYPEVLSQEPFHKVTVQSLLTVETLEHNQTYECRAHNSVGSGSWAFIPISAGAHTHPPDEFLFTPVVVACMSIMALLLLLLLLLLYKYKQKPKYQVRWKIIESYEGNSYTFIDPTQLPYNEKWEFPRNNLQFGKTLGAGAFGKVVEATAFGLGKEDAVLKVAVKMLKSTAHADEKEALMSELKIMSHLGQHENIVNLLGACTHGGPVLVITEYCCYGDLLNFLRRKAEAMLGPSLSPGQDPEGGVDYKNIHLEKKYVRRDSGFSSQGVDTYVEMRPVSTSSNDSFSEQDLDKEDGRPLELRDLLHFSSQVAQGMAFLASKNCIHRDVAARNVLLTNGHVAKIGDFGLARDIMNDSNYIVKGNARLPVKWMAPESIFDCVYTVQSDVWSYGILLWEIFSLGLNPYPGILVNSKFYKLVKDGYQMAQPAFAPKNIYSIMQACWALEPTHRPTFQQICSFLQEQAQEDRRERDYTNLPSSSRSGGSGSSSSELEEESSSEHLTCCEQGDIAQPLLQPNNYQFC
T11 sequence (P35968 20-1356): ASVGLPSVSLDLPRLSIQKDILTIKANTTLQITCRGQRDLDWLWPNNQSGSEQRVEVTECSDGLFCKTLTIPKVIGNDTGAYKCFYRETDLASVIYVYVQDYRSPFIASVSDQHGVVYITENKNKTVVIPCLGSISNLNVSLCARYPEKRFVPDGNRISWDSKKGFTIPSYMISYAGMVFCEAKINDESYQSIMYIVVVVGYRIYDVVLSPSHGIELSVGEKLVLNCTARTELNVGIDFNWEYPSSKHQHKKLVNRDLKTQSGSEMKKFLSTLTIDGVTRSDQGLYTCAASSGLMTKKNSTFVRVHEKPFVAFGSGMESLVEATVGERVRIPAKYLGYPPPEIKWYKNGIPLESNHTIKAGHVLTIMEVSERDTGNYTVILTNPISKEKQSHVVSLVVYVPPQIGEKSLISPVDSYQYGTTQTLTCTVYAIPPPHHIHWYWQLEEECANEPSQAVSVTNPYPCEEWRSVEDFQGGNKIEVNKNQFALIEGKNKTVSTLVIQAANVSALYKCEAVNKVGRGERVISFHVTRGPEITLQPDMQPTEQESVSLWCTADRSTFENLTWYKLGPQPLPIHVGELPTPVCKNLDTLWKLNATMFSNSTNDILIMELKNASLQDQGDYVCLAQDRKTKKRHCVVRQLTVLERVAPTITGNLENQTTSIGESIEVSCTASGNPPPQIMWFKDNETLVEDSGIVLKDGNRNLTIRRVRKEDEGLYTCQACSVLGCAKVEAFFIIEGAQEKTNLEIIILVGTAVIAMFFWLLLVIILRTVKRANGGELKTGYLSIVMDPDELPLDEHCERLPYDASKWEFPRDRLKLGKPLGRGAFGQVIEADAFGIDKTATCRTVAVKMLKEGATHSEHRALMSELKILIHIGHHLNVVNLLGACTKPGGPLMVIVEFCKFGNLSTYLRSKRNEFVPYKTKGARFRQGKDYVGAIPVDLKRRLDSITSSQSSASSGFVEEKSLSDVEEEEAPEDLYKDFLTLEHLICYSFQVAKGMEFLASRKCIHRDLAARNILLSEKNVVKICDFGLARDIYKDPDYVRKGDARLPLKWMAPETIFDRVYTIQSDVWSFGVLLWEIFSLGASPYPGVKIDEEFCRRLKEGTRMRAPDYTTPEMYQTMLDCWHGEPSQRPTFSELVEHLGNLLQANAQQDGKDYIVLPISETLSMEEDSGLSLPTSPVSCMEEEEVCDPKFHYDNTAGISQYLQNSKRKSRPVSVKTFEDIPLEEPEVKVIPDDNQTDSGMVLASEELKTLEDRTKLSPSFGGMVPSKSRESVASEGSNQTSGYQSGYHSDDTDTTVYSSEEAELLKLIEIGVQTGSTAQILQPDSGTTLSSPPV
T10 sequence (Q06187 whole entry): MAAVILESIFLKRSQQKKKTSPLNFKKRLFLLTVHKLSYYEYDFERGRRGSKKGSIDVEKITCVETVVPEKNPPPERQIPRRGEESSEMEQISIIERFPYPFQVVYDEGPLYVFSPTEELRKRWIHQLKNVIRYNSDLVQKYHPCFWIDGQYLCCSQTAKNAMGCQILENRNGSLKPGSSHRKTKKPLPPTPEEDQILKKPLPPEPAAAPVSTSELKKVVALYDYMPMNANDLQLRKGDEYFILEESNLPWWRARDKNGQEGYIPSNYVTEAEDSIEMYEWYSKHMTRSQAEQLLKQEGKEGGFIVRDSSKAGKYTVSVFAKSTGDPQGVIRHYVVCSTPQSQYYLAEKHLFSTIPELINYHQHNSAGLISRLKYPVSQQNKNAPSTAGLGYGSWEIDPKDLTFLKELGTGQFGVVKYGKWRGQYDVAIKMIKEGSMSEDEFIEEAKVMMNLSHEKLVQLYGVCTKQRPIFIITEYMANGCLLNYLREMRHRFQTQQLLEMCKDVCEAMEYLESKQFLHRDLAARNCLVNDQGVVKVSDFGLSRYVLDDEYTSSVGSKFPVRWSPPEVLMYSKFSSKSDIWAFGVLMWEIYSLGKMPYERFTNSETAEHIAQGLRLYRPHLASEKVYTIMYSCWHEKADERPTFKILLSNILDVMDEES
T12 sequence (P49759 whole entry): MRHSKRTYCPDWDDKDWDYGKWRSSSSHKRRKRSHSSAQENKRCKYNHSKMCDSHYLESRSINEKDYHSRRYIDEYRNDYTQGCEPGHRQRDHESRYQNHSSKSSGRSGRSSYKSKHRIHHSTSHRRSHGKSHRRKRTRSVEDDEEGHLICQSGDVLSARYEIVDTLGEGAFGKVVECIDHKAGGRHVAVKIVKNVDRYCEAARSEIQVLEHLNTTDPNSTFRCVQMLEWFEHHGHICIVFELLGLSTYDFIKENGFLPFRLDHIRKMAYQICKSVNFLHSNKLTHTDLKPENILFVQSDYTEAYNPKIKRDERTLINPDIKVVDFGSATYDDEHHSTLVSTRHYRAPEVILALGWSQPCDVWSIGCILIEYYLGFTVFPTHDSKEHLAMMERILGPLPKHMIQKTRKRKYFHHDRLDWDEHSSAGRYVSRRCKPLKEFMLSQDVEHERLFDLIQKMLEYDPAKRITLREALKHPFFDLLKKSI
T15 sequence (Q9UIK4 whole entry): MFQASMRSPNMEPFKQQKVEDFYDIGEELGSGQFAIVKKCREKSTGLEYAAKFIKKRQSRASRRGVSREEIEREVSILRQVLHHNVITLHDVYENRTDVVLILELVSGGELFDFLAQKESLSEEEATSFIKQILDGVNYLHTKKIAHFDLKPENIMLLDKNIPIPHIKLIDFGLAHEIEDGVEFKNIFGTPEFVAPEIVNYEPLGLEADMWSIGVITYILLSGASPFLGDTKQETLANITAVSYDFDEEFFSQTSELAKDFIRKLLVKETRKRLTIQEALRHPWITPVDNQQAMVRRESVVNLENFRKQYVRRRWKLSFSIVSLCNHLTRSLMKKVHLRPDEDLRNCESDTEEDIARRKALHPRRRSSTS

On to `CNc1nc(Nc2ccc(S(=O)(=O)N3CCC(N4CCOCC4)CC3)cc2OC)nc2[nH]cc(Cl)c12` [Compound 12, 5-chloro-N2-(2-methoxy-4-((4-morpholinopiperidin-1-yl)sulfonyl)phenyl)-N4-methyl-7H-pyrrolo[2,3-d]pyrimidine-2,4-diamine], for which the remaining binding at 1 µM in [1] is 77%; in [2] it was 100%; in test [3], 80%; in test [4] it was 100%; in [5], 75%; in test [6] (CSF1R-autoinhibited), 100%. In addition, the remaining binding at 1 µM in test [6] (CSF1R) came to 100%; in test [7] it was 100%; in test [8] it was 96%; in [9], 100%; in test [10], 79%; in [11] it was 91%. The remaining binding at 1 µM in test [12] is 6.1%; in [13] it was 100%; in test [14], 100%; in [15], 29%.
Regarding `CNc1nc(Nc2ccc(P3(=O)CCN(C4CCOCC4)CC3)cc2OC)nc2[nH]cc(Cl)c12` [Compound 77, 4-(4-((5-chloro-4-(methylamino)-7H-pyrrolo[2,3-d]pyrimidin-2-yl)amino)-3-methoxyphenyl)-1-(tetrahydro-2H-pyran-4-yl)-1,4-azaphosphinane 4-oxide], the remaining binding at 1 µM in [1] was determined as 85%; in test [2] it was 100%; in [3], 90%; in test [4] it was 100%; in test [5], 63%; in test [6] (CSF1R-autoinhibited), 100%. The remaining binding at 1 µM was found to be 100% in test [6] (CSF1R); 98% in test [7]; 100% in test [8]; 100% in test [9]; 100% in test [10]; 91% in test [11]. Further, the remaining binding at 1 µM in test [12] was found to be 7.1%; in [13] it was 96%; in test [14], 100%; in test [15], 10%.
`CNc1nc(Nc2ccc(C(=O)N3CCC(N4CCOCC4)CC3)c3c2OCO3)nc2[nH]cc(Cl)c12` [Compound 75, (7-((5-chloro-4-(methylamino)-7H-pyrrolo[2,3-d]pyrimidin-2-yl)amino)benzo[d][1,3]dioxol-4-yl)(4-morpholinopiperidin-1-yl)methanone]: the remaining binding at 1 µM came to 89% in [1]; 100% in test [2]; 39% in test [3]; 56% in [4]; 18% in [5]; 99% in test [6] (CSF1R-autoinhibited). Moreover, the remaining binding at 1 µM came to 98% in [6] (CSF1R); 91% in test [7]; 97% in test [8]; 96% in test [9]; 98% in [10]; 54% in test [11]. The remaining binding at 1 µM in test [12] was determined as 3.4%; in test [13], 100%; in test [14], 100%; in [15], 28%.
